# In patent publication US20230085307A1, “PYRIDAZINONE COMPOUND AND HERBICIDE” (NISSAN CHEMICAL CORPORATION, priority 2019, published 2023):
# Columns and labels:
# barnyard grass [1] = assay: Test Example 3: herbicidal effect by foliage application, Wagner pot (Table 18, symbol H); format: in vivo, barnyard grass (Echinochloa crus-galli)
# In short: (§1)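 Plants were sown in alluvial soil held under 0.1–0.5 cm standing water and grown 14 days in a greenhouse at 25–30 °C. An emulsifiable formulation, water-diluted to the set dose, was then sprayed onto the foliage, and effects were scored three weeks later using previously defined criteria.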
# Chinese sprangletop = assay: Test Example 3: herbicidal effect by foliage application, Wagner pot (Table 18, symbol D); format: in vivo, chinese sprangletop (Leptochloa chinensis)
# In short: as §1
# rice flat sedge = assay: Test Example 3: herbicidal effect by foliage application, Wagner pot (Table 18, symbol E); format: in vivo, rice flat sedge (Cyperus iria)
# In short: as §1
# southern crabgrass [2] = assay: Test Example 4: herbicidal effect by soil treatment (Table 19, symbol F); format: in vivo, southern crabgrass (Digitaria ciliaris); conditions: amount of applied herbicide 320 g/ha
# In short: (§2)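 Applied as a water-diluted emulsion, the compound was sprayed onto soil covering newly sown seeds. Evaluation came three weeks after application, in a greenhouse held at 25° C. to 30° C.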
# green foxtail [3] = assay: Test Example 4: herbicidal effect by soil treatment (Table 19, symbol G); format: in vivo, green foxtail (Setaria viridis); conditions: amount of applied herbicide 320 g/ha
# In short: as §2
# barnyard grass [4] = assay: Test Example 4: herbicidal effect by soil treatment (Table 19, symbol H); format: in vivo, barnyard grass (Echinochloa crus-galli); conditions: amount of applied herbicide 320 g/ha
# In short: as §2
# wild oat [5] = assay: Test Example 4: herbicidal effect by soil treatment (Table 19, symbol I); format: in vivo, wild oat (Avena fatua); conditions: amount of applied herbicide 320 g/ha
# In short: as §2
# blackgrass [6] = assay: Test Example 4: herbicidal effect by soil treatment (Table 19, symbol J); format: in vivo, blackgrass (Alopecurus myosuroides); conditions: amount of applied herbicide 320 g/ha
# In short: as §2
# Italian ryegrass [7] = assay: Test Example 4: herbicidal effect by soil treatment (Table 19, symbol K); format: in vivo, Italian ryegrass (Lolium multiflorum); conditions: amount of applied herbicide 320 g/ha
# In short: as §2
# windgrass [8] = assay: Test Example 4: herbicidal effect by soil treatment (Table 19, symbol L); format: in vivo, windgrass (Apera spica-venti); conditions: amount of applied herbicide 320 g/ha
# In short: as §2
# velvetleaf [9] = assay: Test Example 4: herbicidal effect by soil treatment (Table 19, symbol M); format: in vivo, velvetleaf (Abutilon theophrasti); conditions: amount of applied herbicide 320 g/ha
# In short: as §2
# redroot pigweed [10] = assay: Test Example 4: herbicidal effect by soil treatment (Table 19, symbol N); format: in vivo, redroot pigweed (Amaranthus retroflexus); conditions: amount of applied herbicide 320 g/ha
# In short: as §2
# lambsquarters [11] = assay: Test Example 4: herbicidal effect by soil treatment (Table 19, symbol O); format: in vivo, lambsquarters (Chenopodium album); conditions: amount of applied herbicide 320 g/ha
# In short: as §2
# chickweed [12] = assay: Test Example 4: herbicidal effect by soil treatment (Table 19, symbol P); format: in vivo, common chickweed (Stellaria media); conditions: amount of applied herbicide 320 g/ha
# In short: as §2
# persian speedwell [13] = assay: Test Example 4: herbicidal effect by soil treatment (Table 19, symbol R); format: in vivo, Persian speedwell (Veronica persica); conditions: amount of applied herbicide 320 g/ha
# In short: as §2
# southern crabgrass [14] = assay: Test Example 5: herbicidal effect by foliage application, plastic box (Table 20, symbol F); format: in vivo, southern crabgrass (Digitaria ciliaris); conditions: foliage application, 320 g/ha, three weeks after application
# In short: (§3)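 Sow seeds spot-wise in sterilized diluvial soil; cover with ~1.5 cm soil. Grow 14 days in greenhouse, 25° C. to 30° C. Spray foliage with emulsion diluted to predetermined amount. Rate effect after 3 weeks.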
# green foxtail [15] = assay: Test Example 5: herbicidal effect by foliage application, plastic box (Table 20, symbol G); format: in vivo, green foxtail (Setaria viridis); conditions: foliage application, 320 g/ha, three weeks after application
# In short: as §3
# barnyard grass [16] = assay: Test Example 5: herbicidal effect by foliage application, plastic box (Table 20, symbol H); format: in vivo, barnyard grass (Echinochloa crus-galli); conditions: foliage application, 320 g/ha, three weeks after application
# In short: as §3
# wild oat [17] = assay: Test Example 5: herbicidal effect by foliage application, plastic box (Table 20, symbol I); format: in vivo, wild oat (Avena fatua); conditions: foliage application, 320 g/ha, three weeks after application
# In short: as §3
# blackgrass [18] = assay: Test Example 5: herbicidal effect by foliage application, plastic box (Table 20, symbol J); format: in vivo, blackgrass (Alopecurus myosuroides); conditions: foliage application, 320 g/ha, three weeks after application
# In short: as §3
# Italian ryegrass [19] = assay: Test Example 5: herbicidal effect by foliage application, plastic box (Table 20, symbol K); format: in vivo, Italian ryegrass (Lolium multiflorum); conditions: foliage application, 320 g/ha, three weeks after application
# In short: as §3
# windgrass [20] = assay: Test Example 5: herbicidal effect by foliage application, plastic box (Table 20, symbol L); format: in vivo, windgrass (Apera spica-venti); conditions: foliage application, 320 g/ha, three weeks after application
# In short: as §3
# velvetleaf [21] = assay: Test Example 5: herbicidal effect by foliage application, plastic box (Table 20, symbol M); format: in vivo, velvetleaf (Abutilon theophrasti); conditions: foliage application, 320 g/ha, three weeks after application
# In short: as §3
# redroot pigweed [22] = assay: Test Example 5: herbicidal effect by foliage application, plastic box (Table 20, symbol N); format: in vivo, redroot pigweed (Amaranthus retroflexus); conditions: foliage application, 320 g/ha, three weeks after application
# In short: as §3
# lambsquarters [23] = assay: Test Example 5: herbicidal effect by foliage application, plastic box (Table 20, symbol O); format: in vivo, lambsquarters (Chenopodium album); conditions: foliage application, 320 g/ha, three weeks after application
# In short: as §3
# chickweed [24] = assay: Test Example 5: herbicidal effect by foliage application, plastic box (Table 20, symbol P); format: in vivo, common chickweed (Stellaria media); conditions: foliage application, 320 g/ha, three weeks after application
# In short: as §3
# persian speedwell [25] = assay: Test Example 5: herbicidal effect by foliage application, plastic box (Table 20, symbol R); format: in vivo, Persian speedwell (Veronica persica); conditions: foliage application, 320 g/ha, three weeks after application
# In short: as §3
# [26] = amount of applied herbicide 320 g/ha
smiles,measurement,setting,value
CCc1nn(C)c(=O)c(-c2c(-c3ccc(Cl)cc3)sc3ccc(F)cc23)c1O [2-408],herbicidal effect on H: barnyard grass,barnyard grass [1]; [26],4 (Herbicidal rate of 70% or more and less than 90%)
same,herbicidal effect on D: Chinese sprangletop,Chinese sprangletop; [26],4 (Herbicidal rate of 70% or more and less than 90%)
same,herbicidal effect on E: rice flat sedge,rice flat sedge; [26],5 (Herbicidal rate of 90% or more (almost completely withered))
same,"herbicidal effect, F: southern crabgrass",southern crabgrass [2],0 (Herbicidal rate of 5% or less (almost no effect))
same,"herbicidal effect, G: green foxtail",green foxtail [3],0 (Herbicidal rate of 5% or less (almost no effect))
same,"herbicidal effect, H: barnyard grass",barnyard grass [4],0 (Herbicidal rate of 5% or less (almost no effect))
same,"herbicidal effect, I: wild oat",wild oat [5],0 (Herbicidal rate of 5% or less (almost no effect))
same,"herbicidal effect, J: blackgrass",blackgrass [6],0 (Herbicidal rate of 5% or less (almost no effect))
same,"herbicidal effect, K: Italian ryegrass",Italian ryegrass [7],0 (Herbicidal rate of 5% or less (almost no effect))
same,"herbicidal effect, L: windgrass",windgrass [8],0 (Herbicidal rate of 5% or less (almost no effect))
same,"herbicidal effect, M: velvetleaf",velvetleaf [9],1 (Herbicidal rate of 5% or more and less than 20%)
same,"herbicidal effect, N: redroot pigweed",redroot pigweed [10],4 (Herbicidal rate of 70% or more and less than 90%)
same,"herbicidal effect, O: lambsquarters",lambsquarters [11],3 (Herbicidal rate of 40% or more and less than 70%)
same,"herbicidal effect, P: chickweed",chickweed [12],0 (Herbicidal rate of 5% or less (almost no effect))
same,"herbicidal effect, R: persian speedwell",persian speedwell [13],0 (Herbicidal rate of 5% or less (almost no effect))
same,"F: southern crabgrass, herbicidal effect grade",southern crabgrass [14],4 (Herbicidal rate of 70% or more and less than 90%)
same,"G: green foxtail, herbicidal effect grade",green foxtail [15],5 (Herbicidal rate of 90% or more (almost completely withered))
same,"H: barnyard grass, herbicidal effect grade",barnyard grass [16],3 (Herbicidal rate of 40% or more and less than 70%)
same,"I: wild oat, herbicidal effect grade",wild oat [17],1 (Herbicidal rate of 5% or more and less than 20%)
same,"J: blackgrass, herbicidal effect grade",blackgrass [18],0 (Herbicidal rate of 5% or less (almost no effect))
same,"K: Italian ryegrass, herbicidal effect grade",Italian ryegrass [19],3 (Herbicidal rate of 40% or more and less than 70%)
same,"L: windgrass, herbicidal effect grade",windgrass [20],0 (Herbicidal rate of 5% or less (almost no effect))
same,"M: velvetleaf, herbicidal effect grade",velvetleaf [21],4 (Herbicidal rate of 70% or more and less than 90%)
same,"N: redroot pigweed, herbicidal effect grade",redroot pigweed [22],5 (Herbicidal rate of 90% or more (almost completely withered))
same,"O: lambsquarters, herbicidal effect grade",lambsquarters [23],5 (Herbicidal rate of 90% or more (almost completely withered))
same,"P: chickweed, herbicidal effect grade",chickweed [24],5 (Herbicidal rate of 90% or more (almost completely withered))
same,"R: persian speedwell, herbicidal effect grade",persian speedwell [25],5 (Herbicidal rate of 90% or more (almost completely withered))
COc1ccc(F)cc1-c1sc2ccccc2c1-c1c(O)c(C)nn(C)c1=O [1-058],"herbicidal effect on H (barnyard grass), rating 0-5",barnyard grass [1]; 320 g/ha,4 (Herbicidal rate of 70% or more and less than 90%)
same,"herbicidal effect on D (Chinese sprangletop), rating 0-5",Chinese sprangletop; 320 g/ha,3 (Herbicidal rate of 40% or more and less than 70%)
same,"herbicidal effect on E (rice flat sedge), rating 0-5",rice flat sedge; 320 g/ha,5 (Herbicidal rate of 90% or more (almost completely withered))
same,"herbicidal effect rating, F: southern crabgrass",southern crabgrass [2],2 (Herbicidal rate of 20% or more and less than 40%)
same,"herbicidal effect rating, G: green foxtail",green foxtail [3],5 (Herbicidal rate of 90% or more (almost completely withered))
same,"herbicidal effect rating, H: barnyard grass",barnyard grass [4],3 (Herbicidal rate of 40% or more and less than 70%)
same,"herbicidal effect rating, I: wild oat",wild oat [5],1 (Herbicidal rate of 5% or more and less than 20%)
same,"herbicidal effect rating, J: blackgrass",blackgrass [6],2 (Herbicidal rate of 20% or more and less than 40%)
same,"herbicidal effect rating, K: Italian ryegrass",Italian ryegrass [7],0 (Herbicidal rate of 5% or less (almost no effect))
same,"herbicidal effect rating, L: windgrass",windgrass [8],0 (Herbicidal rate of 5% or less (almost no effect))
same,"herbicidal effect rating, M: velvetleaf",velvetleaf [9],0 (Herbicidal rate of 5% or less (almost no effect))
same,"herbicidal effect rating, N: redroot pigweed",redroot pigweed [10],2 (Herbicidal rate of 20% or more and less than 40%)
same,"herbicidal effect rating, O: lambsquarters",lambsquarters [11],3 (Herbicidal rate of 40% or more and less than 70%)
same,"herbicidal effect rating, P: chickweed",chickweed [12],5 (Herbicidal rate of 90% or more (almost completely withered))
same,"herbicidal effect rating, R: persian speedwell",persian speedwell [13],4 (Herbicidal rate of 70% or more and less than 90%)
same,"herbicidal effect grade, F: southern crabgrass",southern crabgrass [14],3 (Herbicidal rate of 40% or more and less than 70%)
same,"herbicidal effect grade, G: green foxtail",green foxtail [15],4 (Herbicidal rate of 70% or more and less than 90%)
same,"herbicidal effect grade, H: barnyard grass",barnyard grass [16],3 (Herbicidal rate of 40% or more and less than 70%)
same,"herbicidal effect grade, I: wild oat",wild oat [17],1 (Herbicidal rate of 5% or more and less than 20%)
same,"herbicidal effect grade, J: blackgrass",blackgrass [18],4 (Herbicidal rate of 70% or more and less than 90%)
same,"herbicidal effect grade, K: Italian ryegrass",Italian ryegrass [19],4 (Herbicidal rate of 70% or more and less than 90%)
same,"herbicidal effect grade, L: windgrass",windgrass [20],4 (Herbicidal rate of 70% or more and less than 90%)
same,"herbicidal effect grade, M: velvetleaf",velvetleaf [21],1 (Herbicidal rate of 5% or more and less than 20%)
same,"herbicidal effect grade, N: redroot pigweed",redroot pigweed [22],2 (Herbicidal rate of 20% or more and less than 40%)
same,"herbicidal effect grade, O: lambsquarters",lambsquarters [23],0 (Herbicidal rate of 5% or less (almost no effect))
same,"herbicidal effect grade, P: chickweed",chickweed [24],5 (Herbicidal rate of 90% or more (almost completely withered))
same,"herbicidal effect grade, R: persian speedwell",persian speedwell [25],4 (Herbicidal rate of 70% or more and less than 90%)
